Test results from PubChem BioAssay AID1259407 (Chemical Carcinogenesis Research Information System (CCRIS), 2018).
The source made the active and inactive calls. No rule for the calls is given here.

Tested on: CCRIS mutagenicity, Ames/micronucleus/aberration tests
Assay: CCRIS mutagenicity studies

Cn1c(N)nc2cc(Cl)ccc21
mutagenic call (Test System: AMES SALMONELLA TYPHIMURIUM, Strain/Indicator: TA98, Metabolic Activation: RAT, LIVER, S-9, AROCLOR 1254, Method: PREINCUBATION): active; positive
mutagenic call (Test System: AMES SALMONELLA TYPHIMURIUM, Strain/Indicator: TA100, Metabolic Activation: RAT, LIVER, S-9, AROCLOR 1254, Method: PREINCUBATION): active; positive

Oc1ccccc1F
mutagenic call (Test System: MOUSE LYMPHOMA, Strain/Indicator: L5178Y (TK+/TK-), Metabolic Activation: RAT, LIVER, S-9, AROCLOR 1254, Method: SUSPENSION/PLATE): active; positive. reevaluation of results: positive
mutagenic call (Test System: Mouse lymphoma, Strain/Indicator: L5178Y (tk+/tk-), Metabolic Activation: None, Method: Suspension/plate): inactive; negative
mutagenic call (Test System: Mouse lymphoma, Strain/Indicator: L5178Y (tk+/tk-), Metabolic Activation: Rat, Liver, S-9, Aroclor 1254, Method: Suspension/plate): inactive; inconclusive (previous evaluation negative)

CCCCNC(=O)NS(=O)(=O)c1ccc(C)cc1
mutagenic call (End Point: IN VITRO CHROMOSOMAL ABERRATIONS, Test System: CHO-LB CELLS, Metabolic Activation: NONE): inactive; negative
mutagenic call (End Point: IN VITRO CHROMOSOMAL ABERRATIONS, Test System: CHO-LB CELLS, Metabolic Activation: RAT, LIVER, S-9, AROCLOR 1254): inactive; negative

COc1cc(-c2ccc(N/N=C3\C(=O)c4c(O)cc(S(=O)(=O)O)cc4C=C3S(=O)(=O)O)c(OC)c2)ccc1N/N=C1\C(=O)c2c(O)cc(S(=O)(=O)O)cc2C=C1S(=O)(=O)O
mutagenic call (Test System: AMES SALMONELLA TYPHIMURIUM, Strain/Indicator: TA98, Metabolic Activation: HAMSTER, LIVER, S-9, AROCLOR 1254 (10%), Method: PREINCUBATION): inactive; negative
mutagenic call (Test System: AMES SALMONELLA TYPHIMURIUM, Strain/Indicator: TA98, Metabolic Activation: NONE, Method: PREINCUBATION): inactive; negative
mutagenic call (Test System: AMES SALMONELLA TYPHIMURIUM, Strain/Indicator: TA98, Metabolic Activation: RAT, LIVER, S-9, AROCLOR 1254 (10%), Method: PREINCUBATION): inactive; negative
mutagenic call (Test System: AMES SALMONELLA TYPHIMURIUM, Strain/Indicator: TA100, Metabolic Activation: HAMSTER, LIVER, S-9, AROCLOR 1254 (10%), Method: PREINCUBATION): inactive; negative
mutagenic call (Test System: AMES SALMONELLA TYPHIMURIUM, Strain/Indicator: TA100, Metabolic Activation: NONE, Method: PREINCUBATION): inactive; negative
mutagenic call (Test System: AMES SALMONELLA TYPHIMURIUM, Strain/Indicator: TA100, Metabolic Activation: RAT, LIVER, S-9, AROCLOR 1254 (10%), Method: PREINCUBATION): inactive; negative
mutagenic call (Test System: AMES SALMONELLA TYPHIMURIUM, Strain/Indicator: TA1535, Metabolic Activation: HAMSTER, LIVER, S-9, AROCLOR 1254 (10%), Method: PREINCUBATION): inactive; negative
mutagenic call (Test System: AMES SALMONELLA TYPHIMURIUM, Strain/Indicator: TA1535, Metabolic Activation: NONE, Method: PREINCUBATION): inactive; negative
mutagenic call (Test System: AMES SALMONELLA TYPHIMURIUM, Strain/Indicator: TA1535, Metabolic Activation: RAT, LIVER, S-9, AROCLOR 1254 (10%), Method: PREINCUBATION): inactive; negative
mutagenic call (Test System: AMES SALMONELLA TYPHIMURIUM, Strain/Indicator: TA1537, Metabolic Activation: HAMSTER, LIVER, S-9, AROCLOR 1254 (10%), Method: PREINCUBATION): inactive; negative
mutagenic call (Test System: AMES SALMONELLA TYPHIMURIUM, Strain/Indicator: TA1537, Metabolic Activation: NONE, Method: PREINCUBATION): inactive; negative
mutagenic call (Test System: AMES SALMONELLA TYPHIMURIUM, Strain/Indicator: TA1537, Metabolic Activation: RAT, LIVER, S-9, AROCLOR 1254 (10%), Method: PREINCUBATION): inactive; negative
mutagenic call (Test System: AMES SALMONELLA TYPHIMURIUM, Strain/Indicator: TA1538, Metabolic Activation: RAT, LIVER, S-9, AROCLOR 1254, Method: STANDARD PLATE): inactive; negative

CC(=O)O.CC(=O)O.[O]=[U]=[O]
mutagenic call (Test System: Chinese hamster ovary cells, Strain/Indicator: EM9 (HPRT)/6-Thioguanine, Metabolic Activation: None): active; positive

CCc1c(O)c(O)c2c(c1O)C(=O)C(O)=C(O)C2=O
mutagenic call (Test System: AMES SALMONELLA TYPHIMURIUM, Strain/Indicator: TA98, Metabolic Activation: MICROSOMAL FRACTION, FULLY ACTIVATED, AND RAT LIVER S-9, Method: STANDARD PLATE): active; positive
mutagenic call (Test System: AMES SALMONELLA TYPHIMURIUM, Strain/Indicator: TA98, Metabolic Activation: MICROSOMAL FRACTION, NON-FULLY ACTIVATED, Method: STANDARD PLATE): active; positive
mutagenic call (Test System: AMES SALMONELLA TYPHIMURIUM, Strain/Indicator: TA100, Metabolic Activation: MICROSOMAL FRACTION, FULLY ACTIVATED, AND RAT LIVER S-9, Method: STANDARD PLATE): active; positive
mutagenic call (Test System: AMES SALMONELLA TYPHIMURIUM, Strain/Indicator: TA100, Metabolic Activation: MICROSOMAL FRACTION, NON-FULLY ACTIVATED, Method: STANDARD PLATE): active; positive
mutagenic call (Test System: AMES SALMONELLA TYPHIMURIUM, Strain/Indicator: TA1537, Metabolic Activation: MICROSOMAL FRACTION, FULLY ACTIVATED, AND RAT LIVER S-9, Method: STANDARD PLATE): active; positive
mutagenic call (Test System: AMES SALMONELLA TYPHIMURIUM, Strain/Indicator: TA1537, Metabolic Activation: MICROSOMAL FRACTION, NON-FULLY ACTIVATED, Method: STANDARD PLATE): inactive; negative

COC1OC(=O)C(Cl)=C1C(Cl)Cl (stereo not drawn)
mutagenic call (Test System: AMES SALMONELLA TYPHIMURIUM, Strain/Indicator: TA100, Metabolic Activation: NONE, Method: STANDARD PLATE): active; positive
